Laboratory results as given in US20100081693A1, “T[…] AND USE THEREOF” (priority 2006, published 2010).
Where two headings read alike, the source gives them in different places.

What was measured:
Type in all cases: in vivo
[1] = system: tobacco whitefly; experiment: Test Example 3: spray test on tobacco whitefly larvae on cabbage; settings: 168 h, sprayed on cabbage at 20 ml/cup, hatched larvae, seven days after spraying, read-out: Controlling value (%)
[2] = system: Tetranychus urticae; experiment: Test Example 4: spray test on Tetranychus urticae on vineless common bean; settings: 192 h, read-out: Controlling rate (%)
Protocol: Each of present compounds (1) to (3), (5), (17), (39), (55) to (57), (120) to (124), (129), (130), (135), (136), (139) to (141), (232), (236), (243), (255), (262), and the comparative compound (A) was formulated into a preparation according to Preparation Example 5. This preparation was diluted with water so that the concentration of the present compound or the comparative compound (A) became 500 ppm.
Meanwhile, about 60 Tetranychus urticae female imagoes were released on a vineless common bean plantlet (7 days after seeding, first leaf development phase) planted in a plastic cup, which was allowed to stand for 1 day. To this plantlet was sprayed 20 ml of each of the above diluted solutions.
Eight days after spraying, the number of surviving mites on a leaf of the vineless common bean was investigated, and a controlling rate was calculated according to the following equation.
Controlling rate (%)=100×{1−(number of surviving mites of treated group)/(number of surviving mites of non-treated group)}

[3] = system: cotton aphids; experiment: Test Example 2: soil immersion treatment of cucumber, cotton aphids inoculated afterwards; settings: 144 h, 500 ppm test solution (5 ml + 40 ml water), aphids inoculated after 7 days, counted 6 days later, 25° C., read-out: Controlling value (%)
Protocol: Into a beer cup were poured 5 ml of the test diluted solution and 40 ml of water, where a cucumber planted in a polyethylene cup and grown to develop a first true leaf was accommodated, and the soil part was subjected to immersion-treatment. The plant was retained in a greenhouse at 25° C. for 7 days, 30 cotton aphids (all stages) were inoculated on a cucumber leaf surface, the plant was further retained in a greenhouse at 25° C. for 6 days, the number of surviving worms of cotton aphids parasitized on the leaf surface was investigated, and a controlling value was calculated according to the following equation.
(§1) Controlling value (%)={1−(Cb×Tai)/(Cai×Tb)}×100
(§2) Cb is the number of worms before treatment of a non-treated group.
(§3) Cai is the number of worms at observation of a non-treated group.
(§4) Tb is the number of worms before treatment of a treated group.
(§5) Tai is the number of worms at observation of a treated group.

[4] = system: cotton aphids; experiment: Test Example 1: spray test on cotton aphids parasitized on cucumber; settings: 144 h; 500 ppm active ingredient, sprayed on cucumber at 20 ml/cup, six days after spraying; read-out: Controlling value (%)
Protocol: On the other hand, a cucumber was planted in a polyethylene cup, and grown until a first true leaf was developed, and 30 cotton aphids were parasitized thereon. One day after, the test spray solution was sprayed to the cucumber at a ratio of 20 ml/cup. Six days after spraying, the number of cotton aphids was investigated, and a controlling value was calculated according to the following equation.
as §1, §2, §3, §4, §5

[5] = 500 ppm, 20 ml sprayed on common bean plantlet, female imagoes, eight days after spraying

Row | SMILES | pest or weed control at 500 ppm [1] | pest or weed control at 500 ppm [3] | further results
1 | CCCCOc1nc(SC(=O)N(C)C)ns1 [(5)] | ≥ 90% | – | pest or weed control at 500 ppm [2, 5]: ≥ 90%
2 | C#CCOc1nc(SC(=O)N(C)C)ns1 [(7)] | ≥ 90% | – | –
3 | CC#CCOc1nc(SC(=O)N(C)C)ns1 [(8)] | ≥ 90% | – | –
4 | CN(C)C(=O)Sc1nsc(OC2CCOCC2)n1 [(17)] | ≥ 90% | ≥ 90% | pest or weed control at 500 ppm [2, 5]: ≥ 90%
5 | CN(C)C(=O)Sc1nsc(OCCCn2cccn2)n1 [(19)] | – | ≥ 90% | –
6 | CN(C)C(=O)Sc1nsc(OCC(C)(C)C)n1 [(31)] | ≥ 90% | – | –
7 | CN(C)C(=O)Sc1nsc(OCCC(C)(C)C)n1 [(33)] | – | – | pest or weed control at 500 ppm [4]: ≥ 90%
8 | C=CCCCOc1nc(SC(=O)N(C)C)ns1 [(34)] | ≥ 90% | ≥ 90% | pest or weed control at 500 ppm [4]: ≥ 90%
9 | C#CCC(C)Oc1nc(SC(=O)N(C)C)ns1 (stereo not shown) [(38)] | ≥ 90% | – | –
10 | C#CC(C)Oc1nc(SC(=O)N(C)C)ns1 (stereo not shown) [(39)] | ≥ 90% | – | pest or weed control at 500 ppm [2, 5]: ≥ 90%
11 | CN(C)C(=O)Sc1nsc(OCCCCl)n1 [(49)] | ≥ 90% | ≥ 90% | –
12 | CN(C)C(=O)Sc1nsc(OCCCCCl)n1 [(50)] | – | ≥ 90% | –
13 | CN(C)C(=O)Sc1nsc(OCC(C)(C)CCl)n1 [(52)] | ≥ 90% | – | –
14 | CN(C)C(=O)Sc1nsc(OCC(F)(F)C(F)(F)F)n1 [(59)] | ≥ 90% | ≥ 90% | pest or weed control at 500 ppm [4]: ≥ 90%
15 | CC(Oc1nc(SC(=O)N(C)C)ns1)C(F)(F)C(F)(F)F (stereo not shown) [(61)] | ≥ 90% | ≥ 90% | pest or weed control at 500 ppm [4]: ≥ 90%
16 | CN(C)C(=O)Sc1nsc(OCC(F)(F)C(F)(F)C(F)(F)F)n1 [(62)] | – | ≥ 90% | pest or weed control at 500 ppm [4]: ≥ 90%
17 | CCC(Oc1nc(SC(=O)N(C)C)ns1)C(C)(C)C (stereo not shown) [(64)] | – | – | pest or weed control at 500 ppm [4]: ≥ 90%
18 | CN(C)C(=O)Sc1nsc(OCCCl)n1 [(67)] | ≥ 90% | – | –
19 | CN(C)C(=O)Sc1nsc(OCc2ccsc2)n1 [(74)] | – | – | pest or weed control at 500 ppm [4]: ≥ 90%
20 | CN(C)C(=O)Sc1nsc(OCc2cccc(F)c2)n1 [(79)] | – | ≥ 90% | –
21 | CN(C)C(=O)Sc1nsc(OCc2cccc(Cl)c2Cl)n1 [(99)] | – | – | pest or weed control at 500 ppm [4]: ≥ 90%
22 | CN(C)C(=O)Sc1nsc(OCc2c(Cl)cccc2Cl)n1 [(102)] | – | – | pest or weed control at 500 ppm [4]: ≥ 90%
23 | CN(C)C(=O)Sc1nsc(OCc2ccc(Cl)c(Cl)c2)n1 [(103)] | – | – | pest or weed control at 500 ppm [4]: ≥ 90%
24 | CN(C)C(=O)Sc1nsc(OCc2ccc(F)c(C(F)(F)F)c2)n1 [(111)] | ≥ 90% | – | –
25 | CN(C)C(=O)Sc1nsc(OCc2ccc(C(F)(F)F)cc2C(F)(F)F)n1 [(112)] | ≥ 90% | – | –

Row | SMILES | pest or weed control at 500 ppm [1] | pest or weed control at 500 ppm [3] | further results
26 | CC1(C)OCC(COc2nc(SC(=O)N3CCOCC3)ns2)O1 (stereo not shown) [(119)] | ≥ 90% | – | –
27 | CCCOc1nc(SC(=O)N2CCOCC2)ns1 [(120)] | ≥ 90% | – | –
28 | CCOc1nc(SC(=O)N2CCOCC2)ns1 [(122)] | ≥ 90% | – | –
29 | CC#CCOc1nc(SC(=O)N2CCOCC2)ns1 [(125)] | – | ≥ 90% | –
30 | O=C(Sc1nsc(OCC2CCOC2)n1)N1CCOCC1 (stereo not shown) [(127)] | – | ≥ 90% | –
31 | O=C(Sc1nsc(OCC2COCO2)n1)N1CCOCC1 (stereo not shown) [(129)] | – | ≥ 90% | pest or weed control at 500 ppm [2, 5]: ≥ 90%
32 | O=C(Sc1nsc(OC2COCOC2)n1)N1CCOCC1 [(130)] | – | ≥ 90% | pest or weed control at 500 ppm [2, 5]: ≥ 90%
33 | COc1nc(SC(=O)N2CCCC2)ns1 [(135)] | – | – | pest or weed control at 500 ppm [2, 5]: ≥ 90%
34 | CCOc1nc(SC(=O)N2CCCC2)ns1 [(136)] | – | – | pest or weed control at 500 ppm [2, 5]: ≥ 90%
35 | O=C(Sc1nsc(Cl)n1)N1CCCC1 [(147)] | – | ≥ 90% | –
36 | CCOC(CCOc1nc(SC(=O)N(C)C)ns1)OCC [(201)] | ≥ 90% | ≥ 90% | pest or weed control at 500 ppm [4]: ≥ 90%
37 | CN(C)C(=O)Sc1nsc(OCCCOc2nc(SC(=O)N(C)C)ns2)n1 [(204)] | – | – | pest or weed control at 500 ppm [4]: ≥ 90%
38 | CN(C)C(=O)Sc1nsc(OCCCCOc2nc(SC(=O)N(C)C)ns2)n1 [(206)] | ≥ 90% | – | –
39 | CN(C)C(=O)Sc1nsc(OCc2ccccc2)n1 [(211)] | ≥ 90% | – | pest or weed control at 500 ppm [4]: ≥ 90%
40 | CN(C)C(=O)Sc1nsc(OCc2ccccn2)n1 [(215)] | ≥ 90% | – | –
41 | Cc1nn(C)c(Oc2nc(SC(=O)N(C)C)ns2)c1C [(218)] | – | ≥ 90% | –
42 | CN(C)C(=O)Sc1nsc(OCCOc2nc(SC(=O)N(C)C)ns2)n1 [(225)] | – | – | pest or weed control at 500 ppm [4]: ≥ 90%
43 | CN(C)C(=O)Sc1nsc(OCCOCC(F)(F)F)n1 [(232)] | – | – | pest or weed control at 500 ppm [2, 5]: ≥ 90%
44 | COCC(C)Oc1nc(SC(=O)N(C)C)ns1 (stereo not shown) [(236)] | – | – | pest or weed control at 500 ppm [2, 5]: ≥ 90%
45 | COCCOc1nc(SC(=O)N2CCCC2)ns1 [(243)] | – | – | pest or weed control at 500 ppm [2, 5]: ≥ 90%
46 | C=CCOc1nc(SC(=O)N(C)C)ns1 [(255)] | – | – | pest or weed control at 500 ppm [2, 5]: ≥ 90%
47 | C[C@H](Oc1nc(SC(=O)N2CCCC2)ns1)[C@H]1COC(C)(C)O1 [(262)] | – | – | pest or weed control at 500 ppm [2, 5]: ≥ 90%
48 | COCC(COc1nc(SC(=O)N(C)C)ns1)OC (stereo not shown) [(277)] | – | ≥ 90% | –
49 | CCCOc1nc(OC(=O)N(C)C)ns1 [comparative compound (A), reference compound] | 0% | – | pest or weed control at 500 ppm [2]: 0%
